These results are taken from ChEMBL document CHEMBL1121624, “Synthesis, biological evaluation, and preliminary structure-activity considerations of a series of alkylphenols as intravenous anesthetic agents” (J Med Chem, 1980).

Structures are written as SMILES.

For the first data set, the species on record is Mus musculus. The data set is described as follows: Duration of analgesic action in mice was determined; B = brief, < 5 min. The class given is functional, organism-based.
Conditions: not given
On to `CCCc1cccc(CC)c1O`, for which the Duration of action entry is on record as “Brief duration”.
As for `CCCc1cccc(C(C)CC)c1O` (stereo not given), the Duration of action result is “Brief duration”.
As for `CCC(C)c1cccc(C(C)C)c1O` (stereo not given), the Duration of action entry is “Brief duration”.
On the same count and under the same terms, in the case of `CC(C)c1cccc(C2CC2)c1O` it was “Brief duration”; in that of `CCCc1cccc(C(C)C)c1O`, “Brief duration”; in that of `CCCC(C)C1(CC)C(=O)NC(=S)NC1=O` (stereo in doubt; form 1), “Brief duration”.
Take `Cc1cccc(C)c1O`: the Duration of action result is given as “Brief duration”.
As to `CCCc1cccc(CCC)c1O`, the Duration of action result was “Brief duration”.
Consider `CCCCc1cccc(CCC)c1O`, for which the Duration of action result was “Brief duration”.
The same measure, in the same setting: for `CNC1(c2ccccc2Cl)CCCCC1=O.Cl` (stereo not given) [KETAMINE HYDROCHLORIDE] the value was “Brief duration”; for `C=CCC1(C(C)C#CCC)C(=O)NC(=O)N(C)C1=O` (stereo not given), “Brief duration”.
As for `Cc1cccc(C(C)(C)C)c1O`, the Duration of action result is “Brief duration”.
Consider `CCC(C)c1cccc(C2CC2)c1O` (stereo not given), for which the Duration of action result is listed as “Brief duration”.
Still for that read-out and setting: in the case of `CCc1cccc(CC)c1O` it was “Brief duration”; in that of `CCc1cccc(C(C)CC)c1O` (stereo not given), “Brief duration”; in that of `Cc1cccc(C(C)C)c1O`, “Brief duration”.
In the case of `CCc1cccc(C(C)C)c1O`, the Duration of action result is on record as “Brief duration”.
For `CCCCc1cccc(C(C)C)c1O`, the Duration of action entry is given as “Brief duration”.
Same read-out and setting: in the case of `CCCC(C)c1cccc(CC)c1O` (stereo not given) it was “Brief duration”.

The species entered for a further data set is Mus musculus. The experiment in a line: Duration of analgesic action in mice was determined; L = long, >10.
Conditions: not given
The class given is functional, organism-based.
As for `CCCCC(C)c1cccc(C(C)C)c1O` (stereo not given), the Duration of action result was “Long”.
The same measure, in the same setting: for `CCCCCC(C)c1cccc(C)c1O` (stereo not given) the value was “Long”; for `CCCC(C)c1cccc(C(C)CCC)c1O` (stereo not given), “Long”; for `CCCC(C)c1cccc(C(C)C)c1O` (stereo not given), “Long”.
Still for that read-out and setting: in the case of `CC(C)c1cccc(C2CCCCC2)c1O` it was “Long”.

The species named for a further data set is Mus musculus. The experiment in a line: Duration of analgesic action in mice was determined; M = moderate, 5-10 min.
Conditions: not given
The class given is functional, organism-based.
On to `CCCCc1cccc(C(C)CC)c1O` (stereo not given), for which the Duration of action entry was “Moderate”.

For another data set, the species on record is Mus musculus. The data set is described as follows: Hypnotic activity was measured as dose which causes loss of righting reflex for a minimum period of 30s in 50% of mice. It is filed as functional.
Conditions: not given
For the compound `CCCCc1cccc(C(C)C)c1O`, the HD50 came out at 20 mg/kg.

A further data set is filed under the species Mus musculus. The experiment in a line: Hypnotic activity was measured as dose which causes loss of righting reflex for a minimum period of 30s in 50% of mice; Range is 10-15.
Conditions: not given
The class given is functional.
The compound `CCCCC(C)c1cccc(C(C)C)c1O` (stereo not given) displayed an HD50 of 10 mg/kg.
The same measure, in the same setting: in the case of `CNC1(c2ccccc2Cl)CCCCC1=O.Cl` (stereo not given) [KETAMINE HYDROCHLORIDE] it was 10 mg/kg.
Same read-out and setting: in the case of `CCCC(C)c1cccc(C(C)C)c1O` (stereo not given) it was 10 mg/kg; in that of `CCc1cccc(C(C)CC)c1O` (stereo not given), 10 mg/kg.

The species entered for another data set is Mus musculus. The data set is described as follows: Hypnotic activity was measured as dose which causes loss of righting reflex for a minimum period of 30s in 50% of mice; Range is 10-20. It is filed as functional.
Conditions: not given
Take `CCCc1cccc(C(C)CC)c1O` (stereo not given): the HD50 is 10 mg/kg.
On the same count and under the same terms, for `CCCC(C)c1cccc(CC)c1O` (stereo not given) the value was 10 mg/kg.

The species named for the next data set is Mus musculus. The data set is described as follows: Hypnotic activity was measured as dose which causes loss of righting reflex for a minimum period of 30s in 50% of mice; Range is 15-20. The class given is functional.
Conditions: not given
`CCCCCC(C)c1cccc(C)c1O` (stereo not given) yielded an HD50 of 15 mg/kg.
The same measure, in the same setting: in the case of `CCCC(C)c1cccc(C(C)CCC)c1O` (stereo not given) it was 15 mg/kg; in that of `CCc1cccc(CC)c1O`, 15 mg/kg; in that of `CCc1cccc(C(C)C)c1O`, 15 mg/kg.

Another data set is filed under the species Mus musculus. The data set is described as follows: Hypnotic activity was measured as dose which causes loss of righting reflex for a minimum period of 30s in 50% of mice; Range is 20-30. It is filed as functional.
Conditions: not given
With `CCCCc1cccc(C(C)CC)c1O` (stereo not given), the HD50 came to 20 mg/kg.
The same measure, in the same setting: in the case of `CC(C)c1cccc(C2CC2)c1O` it was 20 mg/kg; in that of `CCCc1cccc(C(C)C)c1O`, 20 mg/kg.
`Cc1cccc(C)c1O` had an HD50 of 20 mg/kg.
On the same count and under the same terms, in the case of `CCCc1cccc(CCC)c1O` it was 20 mg/kg.
The compound `Cc1cccc(C(C)C)c1O` showed an HD50 of 20 mg/kg.

The species named for a further data set is Mus musculus. The data set is described as follows: Hypnotic activity was measured as dose which causes loss of righting reflex for a minimum period of 30s in 50% of mice; Range is 20-40. The class given is functional.
Conditions: not given
The compound `CCCc1cccc(CC)c1O` had an HD50 of 20 mg/kg.
Same read-out and setting: in the case of `CCCCc1cccc(CCC)c1O` it was 20 mg/kg.
The same measure, in the same setting: for `CCC(C)c1cccc(C2CC2)c1O` (stereo not given) the value was 20 mg/kg.

For the next data set, the species on record is Mus musculus. The experiment in a line: Hypnotic activity was measured as dose which causes loss of righting reflex for a minimum period of 30s in 50% of mice; Range is 30-40. The class given is functional.
Conditions: not given
`CC(C)c1cccc(C2CCCCC2)c1O` showed an HD50 of 30 mg/kg.

A further data set is filed under the species Mus musculus. The experiment in a line: Hypnotic activity was measured as dose which causes loss of righting reflex for a minimum period of 30s in 50% of mice; Range is 40-60. The class given is functional.
Conditions: not given
In the case of `Cc1cccc(C(C)(C)C)c1O`, the HD50 came to 40 mg/kg.

The species named for the next data set is Mus musculus. The data set is described as follows: Hypnotic activity was measured as dose which causes loss of righting reflex for a minimum period of 30s in 50% of mice; Range is 5-10. It is filed as functional.
Conditions: not given
On to `CCC(C)c1cccc(C(C)C)c1O` (stereo not given), for which the HD50 was 5 mg/kg.

The species entered for another data set is Mus musculus. The data set is described as follows: Speed of induction of analgesia in mice was determined; S = slow, 10-15 s. It is filed as functional, organism-based.
Conditions: not given
In the case of `CCCCC(C)c1cccc(C(C)C)c1O` (stereo not given), the Speed of induction result was “Slow”.
For `CCCc1cccc(C(C)CC)c1O` (stereo not given), the Speed of induction entry is reported as “Slow”.
As for `CNC1(c2ccccc2Cl)CCCCC1=O.Cl` (stereo not given) [KETAMINE HYDROCHLORIDE], the Speed of induction result is listed as “Slow”.
Same read-out and setting: for `CCC(C)c1cccc(C2CC2)c1O` (stereo not given) the value was “Slow”; for `CCCC(C)c1cccc(C(C)C)c1O` (stereo not given), “Slow”.
The same measure, in the same setting: in the case of `CCc1cccc(CC)c1O` it was “Slow induction”; in that of `CC(C)c1cccc(C2CCCCC2)c1O`, “Slow”.

The species named for a further data set is Mus musculus. The experiment in a line: Speed of induction of analgesia in mice was determined; VS = very slow, > 15s. It is filed as functional, organism-based.
Conditions: not given
In the case of `CCCCc1cccc(C(C)CC)c1O` (stereo not given), the Speed of induction result is “Very slow”.
With `CCCc1cccc(CC)c1O`, the Speed of induction entry was “Very slow”.
Same read-out and setting: in the case of `CCCCCC(C)c1cccc(C)c1O` (stereo not given) it was “Very slow”; in that of `CCCCc1cccc(CCC)c1O`, “Very slow”.
The same measure, in the same setting: for `CCCC(C)c1cccc(C(C)CCC)c1O` (stereo not given) the value was “Very slow”.

The species entered for the next data set is Mus musculus. The experiment in a line: Speed of induction of analgesia in mice was determined; I = immediate, <10 s. The class given is functional, organism-based.
Conditions: not given
Turning to `CCC(C)c1cccc(C(C)C)c1O` (stereo not given), the Speed of induction entry is “Immediate”.
The same measure, in the same setting: in the case of `CC(C)c1cccc(C2CC2)c1O` it was “Immediate”.
The same measure, in the same setting: for `CCCc1cccc(C(C)C)c1O` the value was “Immediate”.
Same read-out and setting: for `CCCC(C)C1(CC)C(=O)NC(=S)NC1=O` (stereo in doubt; form 1) the value was “Immediate”; for `Cc1cccc(C)c1O`, “Immediate induction”.
Turning to `CCCc1cccc(CCC)c1O`, the Speed of induction entry is recorded as “Immediate”.
Still for that read-out and setting: in the case of `C=CCC1(C(C)C#CCC)C(=O)NC(=O)N(C)C1=O` (stereo not given) it was “Immediate”; in that of `Cc1cccc(C(C)(C)C)c1O`, “Immediate induction”.
`CCc1cccc(C(C)CC)c1O` (stereo not given): the Speed of induction entry is reported as “Immediate”.
Still for that read-out and setting: for `Cc1cccc(C(C)C)c1O` the value was “Immediate”; for `CCc1cccc(C(C)C)c1O`, “Immediate”; for `CCCCc1cccc(C(C)C)c1O`, “Immediate”.
On the same count and under the same terms, for `CCCC(C)c1cccc(CC)c1O` (stereo not given) the value was “Immediate”.

Test system in a further data set: not listed separately
The experiment in a line: Acute toxicity measured as median lethal dose in mice. The following applies: mouse, in vivo. The class given is organism-based.
The compound `CCCCc1cccc(C(C)CC)c1O` (stereo not given) gave an LD50 of 120 mg/kg.
The compound `CCCc1cccc(CC)c1O` had an LD50 of 100 mg/kg.
Regarding `CCCc1cccc(C(C)CC)c1O` (stereo not given), the LD50 stood at 120 mg/kg.
Take `CCC(C)c1cccc(C(C)C)c1O` (stereo not given): the LD50 is 50 mg/kg.
Same read-out and setting: for `CCCCCC(C)c1cccc(C)c1O` (stereo not given) the value was 100 mg/kg; for `CCCc1cccc(C(C)C)c1O`, 80 mg/kg; for `CCCc1cccc(CCC)c1O`, 100 mg/kg.
As for `CNC1(c2ccccc2Cl)CCCCC1=O.Cl` (stereo not given) [KETAMINE HYDROCHLORIDE], the LD50 is 60 mg/kg.
In the case of `CCCC(C)c1cccc(C(C)C)c1O` (stereo not given), the 50% lethal dose (LD50) came to 80 mg/kg.
`CCc1cccc(CC)c1O`: the LD50 was 100 mg/kg.
The same measure, in the same setting: in the case of `CCc1cccc(C(C)CC)c1O` (stereo not given) it was 80 mg/kg; in that of `Cc1cccc(C(C)C)c1O`, 80 mg/kg.
The same measure, in the same setting: in the case of `CCCCc1cccc(C(C)C)c1O` it was 100 mg/kg.

Test system in a further data set: not listed separately
The experiment in a line: Acute toxicity measured as median lethal dose in mice; Range is 100-120. The class given is organism-based. As to conditions: mouse, in vivo.
Consider `CCCCC(C)c1cccc(C(C)C)c1O` (stereo not given), for which the LD50 is 100 mg/kg.
The compound `CCCCc1cccc(CCC)c1O` had an LD50 of 100 mg/kg.
`CCCC(C)c1cccc(CC)c1O` (stereo not given) showed an LD50 of 100 mg/kg.
The same measure, in the same setting: in the case of `CC(C)c1cccc(C2CCCCC2)c1O` it was 100 mg/kg.

Test system in another data set: not listed separately
The experiment in a line: Acute toxicity measured as median lethal dose in mice; Range is 120-140. It is filed as organism-based. As to conditions: mouse, in vivo.
Consider `CC(C)c1cccc(C2CC2)c1O`, for which the LD50 was 120 mg/kg.
Compound `Cc1cccc(C(C)(C)C)c1O` returned an LD50 of 120 mg/kg.
On to `CCC(C)c1cccc(C2CC2)c1O` (stereo not given), for which the LD50 turned out to be 120 mg/kg.

Test system in another data set: not listed separately
The data set is described as follows: Acute toxicity measured as median lethal dose in mice; Range is 160-180. The following applies: mouse, in vivo. The class given is organism-based.
`CCCC(C)c1cccc(C(C)CCC)c1O` (stereo not given) gave an LD50 of 160 mg/kg.

Test system in a further data set: not listed separately
The experiment in a line: Acute toxicity measured as median lethal dose in mice; Range is 60-80. The class given is organism-based. As to conditions: mouse, in vivo.
On to `CCc1cccc(C(C)C)c1O`, for which the 50% lethal dose (LD50) came to 60 mg/kg.
